*1 amine or outer side, *2 acyl side, *3 side chain or, on linkers, in order; H or OH if unused. Where a SMILES comes first, the peptide text is derived from it. Side-chain parts run from the residue outwards. [ ]: non-standard residue; d: D form. The star is where a group is joined. C20 diacid = O=C(O)CCCCCCCCCCCCCCCCCCC(=O)*; C18 diacid = O=C(O)CCCCCCCCCCCCCCCCC(=O)*; γGlu = O=C(O)[C@H](CCC(=O)[*:2])N[*:1]; αMeF = C[C@](N)(Cc1ccccc1)C(=O)O; 4Pal = N[C@@H](Cc1ccncc1)C(=O)O; αMeL = CC(C)C[C@](C)(N)C(=O)O; Iva = CC[C@](C)(N)C(=O)O; Orn = NCCC[C@H](N)C(=O)O; AEEA = NCCOCCOCC(=O)O; Aib = CC(C)(N)C(=O)O

A word on the EC50: it is the concentration needed to bring the measured effect to its halfway point.

Assay in all cases: cAMP functional assay (HTRF) in HEK293 cells in presence of 0.1% casein
Holding throughout (type): cell-based

Assay [1] addresses T1, human GLP-1 receptor (GLP-1R) (Homo sapiens, UniProt P43220).
T1 construct: expressed in transfected cells; host or cells: HEK293
Particulars: HEK293 cells expressing human GLP-1R, geometric mean, read-out: hGLP1R cAMP Rel EC50 nM (SEM, n).

Assay [2] addresses T2, human glucagon receptor (GcgR) (Homo sapiens, UniProt P47871).
T2 construct: expressed in transfected cells; host or cells: HEK293
Particulars: HEK293 cells expressing human GcgR, geometric mean, read-out: hGcgR cAMP Rel EC50 nM (SEM, n).

The target of assay [3] is T3, human glucose-dependent insulinotropic peptide receptor (GIPR) (Homo sapiens, UniProt P48546).
T3 construct: expressed in transfected cells; host or cells: HEK293
T3 sequence (P48546 22-466): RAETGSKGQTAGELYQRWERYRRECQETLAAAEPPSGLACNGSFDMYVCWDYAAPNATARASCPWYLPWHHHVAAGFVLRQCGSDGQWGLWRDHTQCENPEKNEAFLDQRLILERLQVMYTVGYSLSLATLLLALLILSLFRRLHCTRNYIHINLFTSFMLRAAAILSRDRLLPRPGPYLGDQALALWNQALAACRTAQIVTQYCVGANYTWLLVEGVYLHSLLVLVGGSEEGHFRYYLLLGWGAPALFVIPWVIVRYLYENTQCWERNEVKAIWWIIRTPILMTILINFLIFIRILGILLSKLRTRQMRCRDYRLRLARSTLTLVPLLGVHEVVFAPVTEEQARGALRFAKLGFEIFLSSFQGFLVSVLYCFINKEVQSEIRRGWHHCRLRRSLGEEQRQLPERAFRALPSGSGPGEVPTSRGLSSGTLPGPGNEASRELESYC
The conditions noted are these: HEK293 cells expressing human GIPR, geometric mean, read-out: hGIPR cAMP Rel EC50 nM (SEM, n).

T1 sequence (P43220 24-463): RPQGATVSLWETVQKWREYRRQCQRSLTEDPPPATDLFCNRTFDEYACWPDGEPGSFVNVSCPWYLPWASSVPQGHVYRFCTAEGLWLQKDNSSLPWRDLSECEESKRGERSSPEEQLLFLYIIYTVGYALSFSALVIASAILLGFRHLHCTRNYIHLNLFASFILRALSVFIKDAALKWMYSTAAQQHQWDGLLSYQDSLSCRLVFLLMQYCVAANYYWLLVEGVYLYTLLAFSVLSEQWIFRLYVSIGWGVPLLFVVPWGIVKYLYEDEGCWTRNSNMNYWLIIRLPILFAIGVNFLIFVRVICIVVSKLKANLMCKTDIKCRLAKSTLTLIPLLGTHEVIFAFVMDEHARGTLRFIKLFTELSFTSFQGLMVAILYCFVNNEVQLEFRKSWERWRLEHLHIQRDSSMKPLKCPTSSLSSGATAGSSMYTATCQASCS
T2 sequence (P47871 26-477): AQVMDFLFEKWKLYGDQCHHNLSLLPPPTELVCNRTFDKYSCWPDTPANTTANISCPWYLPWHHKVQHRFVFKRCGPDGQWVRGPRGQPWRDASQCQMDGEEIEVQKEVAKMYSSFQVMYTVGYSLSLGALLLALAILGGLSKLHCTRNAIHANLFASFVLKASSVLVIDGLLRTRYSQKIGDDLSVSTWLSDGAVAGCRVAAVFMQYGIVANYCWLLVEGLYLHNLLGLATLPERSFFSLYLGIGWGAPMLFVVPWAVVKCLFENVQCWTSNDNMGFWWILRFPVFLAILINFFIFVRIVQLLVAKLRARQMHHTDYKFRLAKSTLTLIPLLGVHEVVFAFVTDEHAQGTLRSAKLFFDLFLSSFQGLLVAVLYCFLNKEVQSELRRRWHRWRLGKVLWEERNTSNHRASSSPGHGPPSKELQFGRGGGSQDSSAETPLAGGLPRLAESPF

In the case of `CC[C@H](C)[C@H](NC(=O)[C@H](CO)NC(=O)[C@H](Cc1ccc(O)cc1)NC(=O)[C@H](CC(=O)O)NC(=O)[C@H](CO)NC(=O)[C@@H](NC(=O)[C@H](Cc1ccccc1)NC(=O)[C@@H](NC(=O)CNC(=O)[C@H](CCC(=O)O)NC(=O)[C@@H](C)NC(=O)[C@@H](N)Cc1ccc(O)cc1)[C@@H](C)O)[C@@H](C)CC)C(=O)N[C@@H](CC(C)C)C(=O)N[C@@H](CC(C)C)C(=O)N[C@@H](CC(=O)O)C(=O)N[C@@H](CCCCN)C(=O)N[C@@H](CCCCNC(=O)COCCOCCNC(=O)COCCOCCNC(=O)CC[C@H](NC(=O)CCCCCCCCCCCCCCCCC(=O)O)C(=O)O)C(=O)N[C@@H](C)C(=O)N[C@@H](CCC(N)=O)C(=O)NC(C)(C)C(=O)N[C@@H](CC(=O)O)C(=O)N[C@@H](Cc1ccccc1)C(=O)N[C@H](C(=O)N[C@@H](CC(N)=O)C(=O)N[C@@H](Cc1c[nH]c2ccccc12)C(=O)N[C@@H](CC(C)C)C(=O)N[C@@H](CC(C)C)C(=O)N[C@@H](CCC(=O)O)C(=O)N[C@@H](CCC(N)=O)C(=O)NCC(=O)N1CCC[C@H]1C(=O)N[C@@H](CO)C(=O)N[C@@H](CO)C(=O)NCC(=O)N[C@@H](C)C(=O)N1CCC[C@H]1C(=O)N1CCC[C@H]1C(=O)N1CCC[C@H]1C(=O)N[C@@H](CO)C(N)=O)C(C)C` [Example 17] (H-Y[dA]EGTFISDYSILLDKK([AEEA-AEEA-γGlu-C18 diacid])AQ[Aib]DFVNWLLEQGPSSGAPPPS-NH2), the EC50 in assay [1] was more than 5000 nM; in assay [2], more than 5000 nM; in assay [3], 0.0135 nM.
As to `CC[C@H](C)[C@H](NC(=O)[C@H](CO)NC(=O)[C@H](Cc1ccc(O)cc1)NC(=O)[C@H](CC(=O)O)NC(=O)[C@H](CO)NC(=O)[C@@H](NC(=O)[C@H](Cc1ccccc1)NC(=O)[C@@H](NC(=O)CNC(=O)[C@H](CCC(=O)O)NC(=O)C(C)(C)NC(=O)[C@@H](N)Cc1ccc(O)cc1)[C@@H](C)O)[C@@H](C)CC)C(=O)N[C@@H](CC(C)C)C(=O)N[C@@H](CC(C)C)C(=O)N[C@@H](CC(=O)O)C(=O)N[C@@H](CCCCN)C(=O)N[C@@H](CCCCNC(=O)COCCOCCNC(=O)COCCOCCNC(=O)CC[C@H](NC(=O)CCCCCCCCCCCCCCCCCCC(=O)O)C(=O)O)C(=O)N[C@@H](C)C(=O)N[C@@H](CCC(N)=O)C(=O)NC(C)(C)C(=O)N[C@@H](CC(=O)O)C(=O)N[C@@H](Cc1ccccc1)C(=O)N[C@H](C(=O)N[C@@H](CC(N)=O)C(=O)N[C@@H](Cc1c[nH]c2ccccc12)C(=O)N[C@@H](CC(C)C)C(=O)N[C@@H](CC(C)C)C(=O)N[C@@H](C)C(=O)N[C@@H](CCC(N)=O)C(=O)NCC(=O)N1CCC[C@H]1C(=O)N[C@@H](CO)C(=O)N[C@@H](CO)C(=O)NCC(=O)N[C@@H](C)C(=O)N1CCC[C@H]1C(=O)N1CCC[C@H]1C(=O)N1CCC[C@H]1C(=O)N[C@@H](CO)C(N)=O)C(C)C` [Example 8] (H-Y[Aib]EGTFISDYSILLDKK([AEEA-AEEA-γGlu-C20 diacid])AQ[Aib]DFVNWLLAQGPSSGAPPPS-NH2), the EC50 in assay [1] was more than 5000 nM; in assay [2], 295 nM; in assay [3] it was 0.0268 nM.
For `CC[C@H](C)[C@H](NC(=O)[C@H](Cc1ccccc1)NC(=O)[C@@H](NC(=O)CNC(=O)[C@H](CCC(=O)O)NC(=O)C(C)(C)NC(=O)[C@@H](N)Cc1ccc(O)cc1)[C@@H](C)O)C(=O)N[C@@H](CO)C(=O)N[C@@H](CC(=O)O)C(=O)N[C@@H](Cc1ccc(O)cc1)C(=O)N[C@@H](CO)C(=O)N[C@H](C(=O)N[C@@](C)(CC(C)C)C(=O)N[C@@H](CC(C)C)C(=O)N[C@@H](CC(=O)O)C(=O)N[C@@H](CCC(=O)O)C(=O)N[C@@H](CCCCNC(=O)COCCOCCNC(=O)COCCOCCNC(=O)CC[C@H](NC(=O)CCCCCCCCCCCCCCCCCCC(=O)O)C(=O)O)C(=O)N[C@@H](Cc1c[nH]cn1)C(=O)N[C@@H](CCC(N)=O)C(=O)NC(C)(C)C(=O)N[C@@H](CC(=O)O)C(=O)N[C@@H](Cc1ccccc1)C(=O)N[C@H](C(=O)N[C@@H](CCC(=O)O)C(=O)N[C@@H](Cc1ccncc1)C(=O)N[C@@H](CC(C)C)C(=O)N[C@@H](CC(C)C)C(=O)N[C@@H](C)C(=O)N[C@@H](C)C(=O)NCC(=O)N1CCC[C@H]1C(=O)N[C@@H](CO)C(=O)N[C@@H](CO)C(=O)NCC(=O)N[C@@H](C)C(=O)N1CCC[C@H]1C(=O)N1CCC[C@H]1C(=O)N1CCC[C@H]1C(=O)N[C@@H](CO)C(N)=O)C(C)C)[C@@H](C)CC` [Example 85], in that order: more than 5000 nM, more than 5000 nM and 0.0359 nM.
For `CC[C@H](C)[C@H](NC(=O)[C@H](CO)NC(=O)[C@H](Cc1ccc(O)cc1)NC(=O)[C@H](CC(=O)O)NC(=O)[C@H](CO)NC(=O)[C@@H](NC(=O)[C@](C)(Cc1ccccc1)NC(=O)[C@@H](NC(=O)CNC(=O)[C@H](CCC(=O)O)NC(=O)C(C)(C)NC(=O)[C@@H](N)Cc1ccc(O)cc1)[C@@H](C)O)[C@@H](C)CC)C(=O)N[C@@H](C)C(=O)N[C@@H](CC(C)C)C(=O)N[C@@H](CC(=O)O)C(=O)N[C@@H](CCCCN)C(=O)N[C@@H](CCCCNC(=O)COCCOCCNC(=O)COCCOCCNC(=O)CC[C@H](NC(=O)CCCCCCCCCCCCCCCCC(=O)O)C(=O)O)C(=O)N[C@@H](Cc1c[nH]cn1)C(=O)N[C@@H](CCC(N)=O)C(=O)NC(C)(C)C(=O)N[C@@H](CC(=O)O)C(=O)N[C@@H](Cc1ccccc1)C(=O)N[C@H](C(=O)N[C@@H](CCC(=O)O)C(=O)N[C@@H](Cc1ccncc1)C(=O)N[C@@H](CC(C)C)C(=O)N[C@@H](CC(C)C)C(=O)N[C@@H](C)C(=O)NCC(=O)NCC(=O)N1CCC[C@H]1C(=O)N[C@@H](CO)C(=O)N[C@@H](CO)C(=O)NCC(=O)N[C@@H](C)C(=O)N1CCC[C@H]1C(=O)N1CCC[C@H]1C(=O)N1CCC[C@H]1C(=O)N[C@@H](CO)C(N)=O)C(C)C` [Example 23] (H-Y[Aib]EGT[αMeF]ISDYSIALDKK([AEEA-AEEA-γGlu-C18 diacid])HQ[Aib]DFVE[4Pal]LLAGGPSSGAPPPS-NH2), in that order: 206 nM, more than 5000 nM and 0.0192 nM.
`CC[C@H](C)[C@H](NC(=O)[C@H](Cc1ccccc1)NC(=O)[C@@H](NC(=O)CNC(=O)[C@H](CCC(=O)O)NC(=O)C(C)(C)NC(=O)[C@@H](N)Cc1ccc(O)cc1)[C@@H](C)O)C(=O)N[C@@H](CO)C(=O)N[C@@H](CC(=O)O)C(=O)N[C@@H](Cc1ccc(O)cc1)C(=O)N[C@@H](CO)C(=O)N[C@H](C(=O)N[C@@](C)(CC(C)C)C(=O)N[C@@H](CC(C)C)C(=O)N[C@@H](CC(=O)O)C(=O)N[C@@H](CCCN)C(=O)N[C@@H](CCCCNC(=O)COCCOCCNC(=O)COCCOCCNC(=O)CC[C@H](NC(=O)CCCCCCCCCCCCCCCCCCC(=O)O)C(=O)O)C(=O)N[C@@H](Cc1c[nH]cn1)C(=O)N[C@@H](CCC(N)=O)C(=O)NC(C)(C)C(=O)N[C@@H](CC(=O)O)C(=O)N[C@@H](Cc1ccccc1)C(=O)N[C@H](C(=O)N[C@@H](CCC(=O)O)C(=O)N[C@@H](Cc1ccncc1)C(=O)N[C@@H](CC(C)C)C(=O)N[C@@H](CC(C)C)C(=O)N[C@@H](CCC(=O)O)C(=O)NCC(=O)NCC(=O)N1CCC[C@H]1C(=O)N[C@@H](CO)C(=O)N[C@@H](CO)C(=O)NCC(=O)N[C@@H](C)C(=O)N1CCC[C@H]1C(=O)N1CCC[C@H]1C(=O)N1CCC[C@H]1C(=O)N[C@@H](CO)C(N)=O)C(C)C)[C@@H](C)CC` [Example 82] (H-Y[Aib]EGTFISDYSI[αMeL]LD[Orn]K([AEEA-AEEA-γGlu-C20 diacid])HQ[Aib]DFVE[4Pal]LLEGGPSSGAPPPS-NH2): the EC50 in assay [1] is more than 5000 nM; in assay [2], 3790 nM; in assay [3], 0.0391 nM.
The matching figures for `CC[C@H](C)[C@H](NC(=O)[C@H](CO)NC(=O)[C@H](Cc1ccc(O)cc1)NC(=O)[C@H](CC(=O)O)NC(=O)[C@H](CO)NC(=O)[C@@H](NC(=O)[C@](C)(CC)NC(=O)[C@@H](NC(=O)CNC(=O)[C@H](CCC(=O)O)NC(=O)C(C)(C)NC(=O)[C@@H](N)Cc1ccc(O)cc1)[C@@H](C)O)[C@@H](C)CC)C(=O)N[C@@](C)(CC(C)C)C(=O)N[C@@H](CC(C)C)C(=O)N[C@@H](CC(=O)O)C(=O)N[C@@H](CCCCN)C(=O)N[C@@H](CCCCNC(=O)COCCOCCNC(=O)COCCOCCNC(=O)CC[C@H](NC(=O)CCCCCCCCCCCCCCCCCCC(=O)O)C(=O)O)C(=O)N[C@@H](Cc1c[nH]cn1)C(=O)N[C@@H](CCC(N)=O)C(=O)NC(C)(C)C(=O)N[C@@H](CC(=O)O)C(=O)N[C@@H](Cc1ccccc1)C(=O)N[C@H](C(=O)N[C@@H](CCC(=O)O)C(=O)N[C@@H](Cc1ccncc1)C(=O)N[C@@H](CC(C)C)C(=O)N[C@@H](CC(C)C)C(=O)N[C@@H](CCC(=O)O)C(=O)N[C@@H](C)C(=O)NCC(=O)N1CCC[C@H]1C(=O)N[C@@H](CO)C(=O)N[C@@H](CO)C(=O)NCC(=O)N[C@@H](C)C(=O)N1CCC[C@H]1C(=O)N1CCC[C@H]1C(=O)N1CCC[C@H]1C(=O)N[C@@H](CO)C(N)=O)C(C)C` [Example 88] (H-Y[Aib]EGT[Iva]ISDYSI[αMeL]LDKK([AEEA-AEEA-γGlu-C20 diacid])HQ[Aib]DFVE[4Pal]LLEAGPSSGAPPPS-NH2): more than 5000 nM, 1670 nM and 0.0031 nM.

(Values after patent US12723063B2, “GIPR-agonist compounds” (Eli Lilly and Company, priority 2019, dated 2026).)
